Where two headings read alike, the source gives them in different places. Non-standard residues stand in square brackets, D forms with d. No end group written: not given here. Sta = CC(C)C[C@H](N)[C@@H](O)CC(=O)O
Experiments:
BACE1 [1] = target: BACE1 (Homo sapiens, UniProt P56817); test: SPR antibody-amplified BACE1 cleavage inhibition assay, immobilized APP; format: biochemical; conditions: for BACE1 inhibition, two-channel screening (in words): 30 nM compound 1 (CH1) or 2 μM compound 2 (CH2), Figure 2B
BACE1 [2] = conditions: read-out: IC50 (ELISA); measured from ELISA; cited from earlier work
BACE1 [3] = conditions: read-out: IC50 (MS); determined by MS; cited from earlier work
[4] = 10 nM BACE1, SA-coated PEG chip

BACE1 (Homo sapiens, UniProt P56817), sequence (P56817 46-501): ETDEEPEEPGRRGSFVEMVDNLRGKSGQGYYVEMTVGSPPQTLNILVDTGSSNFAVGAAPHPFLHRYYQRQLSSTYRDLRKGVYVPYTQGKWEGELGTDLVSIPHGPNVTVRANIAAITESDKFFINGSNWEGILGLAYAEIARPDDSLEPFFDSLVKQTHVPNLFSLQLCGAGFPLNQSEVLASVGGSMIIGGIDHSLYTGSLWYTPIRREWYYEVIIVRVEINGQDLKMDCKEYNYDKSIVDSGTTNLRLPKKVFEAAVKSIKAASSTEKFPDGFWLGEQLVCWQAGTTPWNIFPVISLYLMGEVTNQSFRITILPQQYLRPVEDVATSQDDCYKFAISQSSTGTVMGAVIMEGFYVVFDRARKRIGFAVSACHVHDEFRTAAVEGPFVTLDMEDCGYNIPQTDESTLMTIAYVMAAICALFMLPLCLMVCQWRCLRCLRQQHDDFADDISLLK

## KTEEISEVN-Sta-VAEF (KTEEISEVN[Sta]VAEF) [Compound 1]
BACE1 [1]; [4]
  BACE1 inhibition, two-channel screening (in words): exhibited inhibition of the BACE1 activity
BACE1 [1]; 30 nM compound 1 vs 2 μM compound 2, Figure 2B
  relative potency compound 1 vs compound 2 (in words): much more potent inhibitor
BACE1 [1]; 40 nM compound, 10 nM BACE1, SA-coated PEG chip, Figure 2A curve c
  BACE1 inhibition (in words): insufficient to completely halt the peptide cleavage by BACE1
BACE1 [2]
  IC50: 30 nM

## Ph-LL-4,5-dehydro-L-CHO [Compound 2]
BACE1 [1]; [4]
  BACE1 inhibition, two-channel screening (in words): exhibited inhibition of the BACE1 activity
BACE1 [1]; 2 μM compound 2, 10 nM BACE1, Ni-NTA chip, Figure 4 cycle 4
  BACE1 inhibition (in words): partially inhibits BACE1
BACE1 [3]
  IC50: 3000 nM
